Data: the supplement of paper PMC11061612

Tests used:
Assay in all cases: Bliss excess, mean over the matrix (fraction); higher = more synergy
[1] = test system: MHH-CALL-2 (B-Lymphoblastic Leukemia)
Procedure, shortened: (§1)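 After 24 hours at 37°C and 5% CO2 in 1536-well plates, cells in DMEM/F12 or RPMI plus 10% FBS received two-drug dose matrices for 72 hours. Viability came from CellTiter-Glo 2.0 luminescence and was scaled as inhibition, anchored at 0 by vehicle wells and at 1 by blank wells. Combination Emax is taken as the second-highest inhibition in the matrix, and Bliss excess as the observed combination effect less EA + EB − EA·EB, with EA and EB the single-agent effects.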

[2] = test system: NCI-H2722 (Mesothelioma)
Procedure, shortened: as §1

[3] = test system: GAMG (Glioblastoma)
Procedure, shortened: as §1

[4] = test system: KYAE-1 (Esophageal Adenocarcinoma)
Procedure, shortened: as §1

[5] = test system: OV-56 (Ovarian Carcinoma)
Procedure, shortened: as §1

[6] = test system: NUGC-4 (Gastric Carcinoma)
Procedure, shortened: as §1

[7] = test system: WSU-NHL (B-Cell Non-Hodgkin's Lymphoma)
Procedure, shortened: as §1

[8] = test system: YAPC (Pancreatic Carcinoma)
Procedure, shortened: as §1

[9] = test system: BE-13 (T-Lymphoblastic Leukemia)
Procedure, shortened: as §1

[10] = test system: NCI-H2052 (Mesothelioma)
Procedure, shortened: as §1

[11] = test system: SW1710 (Bladder Carcinoma)
Procedure, shortened: as §1

[12] = test system: FTC-133 (Thyroid Gland Carcinoma)
Procedure, shortened: as §1

[13] = test system: OE21 (Esophageal Squamous Cell Carcinoma)
Procedure, shortened: as §1

[14] = test system: Hs-746T (Gastric Carcinoma)
Procedure, shortened: as §1

[15] = test system: KS-1 (Glioblastoma)
Procedure, shortened: as §1

[16] = test system: A673 (Ewing's Sarcoma)
Procedure, shortened: as §1

[17] = test system: CAL-33 (Oral Cavity Carcinoma)
Procedure, shortened: as §1

[18] = test system: SNU-449 (Hepatocellular Carcinoma)
Procedure, shortened: as §1

[19] = test system: LNZTA3WT4 (Low Grade Glioma)
Procedure, shortened: as §1

[20] = test system: NCI-H1568 (Lung Adenocarcinoma)
Procedure, shortened: as §1

| Structure (SMILES) | Bliss excess [1] | Bliss excess [2] | Bliss excess [3] | Bliss excess [4] | Bliss excess [5] | Bliss excess [6] | Bliss excess [7] | Bliss excess [8] | Bliss excess [9] | Bliss excess [10] | Bliss excess [11] | Bliss excess [12] | Bliss excess [13] | Bliss excess [14] | Bliss excess [15] | Bliss excess [16] | Bliss excess [17] | Bliss excess [18] | Bliss excess [19] | Bliss excess [20] |
| --- | --- | --- | --- | --- | --- | --- | --- | --- | --- | --- | --- | --- | --- | --- | --- | --- | --- | --- | --- | --- |
| CC1(C)CCC(CN2CCN(c3ccc(C(=O)NS(=O)(=O)c4ccc(NCC5CCOCC5)c([N+](=O)[O-])c4)c(Oc4cnc5[nH]ccc5c4)c3)CC2)=C(c2ccc(Cl)cc2)C1 [Venetoclax] + CN(C)CCCOc1ccc(-c2ccc3ncc4c(c3c2)n(C2CCOCC2)c(=O)n4C)cn1 [AZD0156] (first compound max 1 µM, 7x7, partner max 1 µM) | 0.0128 | -0.081 | -0.0225 | -0.0166 | 0.0022 | -0.0644 | -0.0402 | -0.02 | 0.0084 | -0.0184 | -0.0264 | 0.0019 | -0.0165 | -0.0043 | -0.007 | 0.0265 | -0.0064 | -0.07 | -0.0469 | -0.0166 |
| CC1(C)CCC(CN2CCN(c3ccc(C(=O)NS(=O)(=O)c4ccc(NCC5CCOCC5)c([N+](=O)[O-])c4)c(Oc4cnc5[nH]ccc5c4)c3)CC2)=C(c2ccc(Cl)cc2)C1 [Venetoclax] + COc1cc(Nc2ncc3c(n2)-c2ccc(Cl)cc2C(c2c(F)cccc2OC)=NC3)ccc1C(=O)O [Alisertib] (first compound max 1 µM, 7x7, partner max 10 µM) | 0.165 | -0.0855 | -0.0024 | -0.119 | 0.001 | -0.0557 | -0.0521 | -0.0354 | -0.003 | -0.0169 | -0.0425 | 0.0138 | 0.0433 | 0.0096 | 0.0145 | 0.198 | -0.0356 | -0.0753 | 0.023 | -0.0418 |
| CC1(C)CCC(CN2CCN(c3ccc(C(=O)NS(=O)(=O)c4ccc(NCC5CCOCC5)c([N+](=O)[O-])c4)c(Oc4cnc5[nH]ccc5c4)c3)CC2)=C(c2ccc(Cl)cc2)C1 [Venetoclax] + C[C@@H]1COCCN1C2=NC(=NC(=C2)C3(CC3)[S@](=N)(=O)C)C4=C5C=CNC5=NC=C4 [AZD6738] (first compound max 1 µM, 7x7, partner max 10 µM) | -0.0357 | -0.0405 | -0.0727 | -0.0387 | -0.0475 | -0.011 | -0.0913 | -0.0303 | -0.0204 | -0.0406 | -0.0404 | -0.0014 | -0.0357 | -0.063 | -0.0368 | -0.0024 | -0.0489 | -0.0239 | 0.0105 | -0.0156 |
| CC1(C)CCC(CN2CCN(c3ccc(C(=O)NS(=O)(=O)c4ccc(NCC5CCOCC5)c([N+](=O)[O-])c4)c(Oc4cnc5[nH]ccc5c4)c3)CC2)=C(c2ccc(Cl)cc2)C1 [Venetoclax] + C[C@@H](Nc1cc(F)cc(F)c1)c1cc(C(=O)N(C)C)cc2c(=O)cc(N3CCOCC3)oc12 [AZD8186] (first compound max 1 µM, 7x7, partner max 3 µM) | 0.0163 | -0.0546 | -0.0453 | -0.0358 | -0.0178 | 0.0298 | 0.0209 | -0.048 | -0.0369 | -0.0266 | -0.0826 | -0.0168 | -0.0166 | -0.004 | 0.0007 | -0.023 | -0.0241 | -0.0583 | -0.0539 | -0.0408 |
| CC1(C)CCC(CN2CCN(c3ccc(C(=O)NS(=O)(=O)c4ccc(NCC5CCOCC5)c([N+](=O)[O-])c4)c(Oc4cnc5[nH]ccc5c4)c3)CC2)=C(c2ccc(Cl)cc2)C1 [Venetoclax] + Cc1cc2ncnn2cc1Nc1ncc2c(n1)n(C1CCOCC1)c(=O)n2C [AZD7648] (first compound max 1 µM, 7x7, partner max 10 µM) | -0.0228 | -0.042 | -0.024 | -0.0128 | 0.0016 | -0.0714 | -0.082 | -0.0143 | -0.0896 | -0.0019 | -0.0217 | -0.0156 | -0.0076 | -0.0131 | -0.0296 | -0.0124 | 0.0043 | -0.0699 | -0.0353 | -0.0256 |
| CC1(C)CCC(CN2CCN(c3ccc(C(=O)NS(=O)(=O)c4ccc(NCC5CCOCC5)c([N+](=O)[O-])c4)c(Oc4cnc5[nH]ccc5c4)c3)CC2)=C(c2ccc(Cl)cc2)C1 [Venetoclax] + Cn1cnc2c(F)c(Nc3ccc(Br)cc3Cl)c(C(=O)NOCCO)cc21 [Selumetinib] (first compound max 1 µM, 7x7, partner max 3 µM) | 0.0653 | -0.0741 | -0.0576 | -0.028 | -0.0188 | -0.0467 | -0.131 | -0.0474 | -0.0418 | -0.0126 | -0.0134 | -0.0232 | 0.0044 | -0.0192 | 0.0043 | 0.0048 | -0.0292 | -0.0609 | -0.0321 | -0.0681 |
